# According to patent publication US9663480B2, “BIS-MMF derivatives” (RATIOPHARM GMBH, priority 2013, dated 2017):
# Assay: Kinetics of MMF-release during incubation in intestinal fluid from the minipig (LC-MS quantification of MMF)
# Assay type: in vitro ADME, Gottingen SPF minipig
# Conditions: diluted small intestinal fluid (1/20 v/v with 50 mM KH2PO4, pH 6.8), 37° C., samples at 0-120 min; FIG. 1; DMF as reference
# Experimental: Investigation and Comparision of the Kinetics of MMF-Release of the Different Compounds of the Present Invention and DMF During Incubation in Intestinal Fluid from the Minipig
# Intestinal fluid samples were prepared at CiToxLAB Scantox A/S. The samples were taken from 1 female Gottingen SPF minipig from CiToxLAB Scantox A/S standard stock, originally obtained from Ellegaard Gottingen Minipigs A/S, DK-4261 Dalmose, Denmark. The minipig was 10 months old and the body weight was 21 kg. The minipig was identified by an individual number tagged to the pinna of one ear (animal number is documented in the raw data).
# The minipig was fasted for approximately 28 hours before sampling of intestinal fluid. […]
# Incubations were continued and in case the result of analysis of the 120 min indicated the presence of remaining intact MMF prodrug, additional samples were taken (t=360 or 420 min and at 1,260 or 1,320 min) and analysed.
# The concentration/peak area ratio data pairs were subjected to regression analysis with 1/x weighting and the resulting calibration equation was used to quantify the MMF content in incubation samples.
compound,measurement,value
"COC(=O)/C=C/C(=O)OCCN1CCN(CCOC(=O)/C=C/C(=O)OC)CC1 [Example 1, (E)-But-2-enedioic acid-2-{4-[2-((E)-3-methoxycarbonyl-acryloyloxy)-ethyl]-piperazin-1-yl}-ethyl ester methyl ester]",hydrolysis to MMF (MMF release) compared with DMF,substantially the same hydrolysis to MMF than DMF
